*1 amine or outer side, *2 acyl side, *3 side chain or, on linkers, in order; H or OH if unused. Where a SMILES comes first, the peptide text is derived from it. Side-chain parts run from the residue outwards. [ ]: non-standard residue; d: D form. The star is where a group is joined. C18 diacid = O=C(O)CCCCCCCCCCCCCCCCC(=O)*; γGlu = O=C(O)[C@H](CCC(=O)[*:2])N[*:1]; NMeI = CC[C@H](C)[C@H](NC)C(=O)O; Pentanoyl = CCCCC(=O)*; AEEA = NCCOCCOCC(=O)O; Aib = CC(C)(N)C(=O)O

What is called EC50 is the midpoint of the concentration-response curve. Lower therefore signals a more potent agent.

One assay concerns the target T1, human CRF2a receptor (Homo sapiens, UniProt Q13324).
T1 construct: expressed in transfected cells; host or cells: TeloHEAC cells
T1 sequence (Q13324 1-411): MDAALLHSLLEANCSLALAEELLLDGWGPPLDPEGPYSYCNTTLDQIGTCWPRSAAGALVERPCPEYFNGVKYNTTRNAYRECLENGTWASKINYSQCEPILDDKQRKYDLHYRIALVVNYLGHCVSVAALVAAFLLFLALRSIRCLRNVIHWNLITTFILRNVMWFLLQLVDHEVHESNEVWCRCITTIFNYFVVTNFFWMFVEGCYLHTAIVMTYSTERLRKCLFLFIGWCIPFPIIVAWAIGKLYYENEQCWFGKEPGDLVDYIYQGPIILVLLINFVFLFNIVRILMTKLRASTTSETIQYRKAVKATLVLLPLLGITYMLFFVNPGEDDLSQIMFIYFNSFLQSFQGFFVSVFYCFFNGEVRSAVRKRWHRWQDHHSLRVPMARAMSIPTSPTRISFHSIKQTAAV
Kind of assay: Activity at human CRF2a receptor, cAMP functional assay in TeloHEAC cells. Format: cell-based. Particulars: TeloHEAC cells stably expressing human CRF2a receptor, relative to urocortin 2 (100 nM = 100%). The method, boiled down:
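TeloHEAC cells stably expressing human CRF2a (10000 cells/well) were treated with 16-point 1:2 compound dilutions in HBSS/20 mM HEPES with IBMX for 30 min at 37° C. cAMP was read by HTRF (665/620 nm ratio). EC50 was the concentration giving 50% activation, with 100 nM urocortin 2 set as 100%.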

A further assay has as its target T2, CFR1R receptor (Homo sapiens, UniProt P34998).
T2 construct: host or cells: CHO-K1 (clone 2)
T2 sequence (P34998 24-415): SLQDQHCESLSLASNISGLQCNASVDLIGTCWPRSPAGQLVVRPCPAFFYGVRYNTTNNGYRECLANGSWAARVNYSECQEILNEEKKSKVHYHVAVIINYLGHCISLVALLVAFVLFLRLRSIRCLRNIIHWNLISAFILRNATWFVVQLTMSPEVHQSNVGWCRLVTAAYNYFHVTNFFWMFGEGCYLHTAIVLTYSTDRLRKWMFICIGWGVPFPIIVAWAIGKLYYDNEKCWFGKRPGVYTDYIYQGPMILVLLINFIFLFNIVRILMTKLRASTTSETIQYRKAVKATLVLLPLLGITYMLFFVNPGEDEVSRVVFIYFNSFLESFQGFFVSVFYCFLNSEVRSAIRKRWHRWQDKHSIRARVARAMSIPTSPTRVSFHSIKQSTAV
Kind of assay: Activity at anti-target CFR1R receptor, cAMP assay in CRF1R-overexpression CHO-K1 cells. The settings on record: 100% = Sauvagine at 100 nM; for EC50: cAMP. It is filed as cell-based. An outline of the steps: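 Clone 2 cells were cultured in F12 (Hams)/10% FBS/400 μg/ml G418 at 37° C./5% CO2, frozen in medium with 10% DMSO, and thawed vials used. The protocol followed the TeloHAEC procedure, with 4000 cells/well final and Sauvagine at 100 nM defining 100% activation.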
(In general: Cyclic AMP is a second messenger, typically raised through Gs and lowered through Gi signalling.)

For `CC[C@H](C)[C@H](NC(C)=O)C(=O)N[C@H](C(=O)N[C@@H](CC(C)C)C(=O)N[C@@H](CO)C(=O)N[C@@H](CC(C)C)C(=O)N[C@@H](CC(=O)O)C(=O)N[C@@H](C(=O)N1CCC[C@H]1C(=O)N[C@H](C(=O)N[C@@H](CCCCN)C(=O)N[C@@H](CC(C)C)C(=O)N[C@@H](CCCCNC(=O)COCCOCCNC(=O)COCCOCCNC(=O)CC[C@H](NC(=O)CCCCCCCCCCCCCCCCC(=O)O)C(=O)O)C(=O)N[C@@H](CCCCN)C(=O)N[C@H](C(=O)N[C@@H](CC(C)C)C(=O)N[C@@H](CC(C)C)C(=O)N[C@@H](CCC(=O)O)C(=O)N[C@@H](CCC(N)=O)C(=O)N[C@@H](CCC(=O)O)C(=O)N[C@@H](CCCCN)C(=O)N[C@@H](CCC(N)=O)C(=O)N[C@@H](CCCCN)C(=O)NC(C)(C)C(=O)N[C@@H](CCC(N)=O)C(=O)N[C@@H](CCCNC(=N)N)C(=O)N[C@@H](CCC(=O)O)C(=O)N[C@@H](CCC(N)=O)C(=O)N[C@@H](C)C(=O)N[C@@H](CCC(=O)O)C(=O)N[C@H](C(=O)N[C@@H](CC(N)=O)C(=O)NC(C)(C)C(=O)N[C@@H](CCC(N)=O)C(=O)N[C@H](C(=O)N[C@@H](CC(C)C)C(=O)N[C@@H](C)C(=O)N[C@@H](CCC(N)=O)C(=O)N[C@H](C(N)=O)C(C)C)[C@@H](C)CC)[C@@H](C)O)[C@@H](C)CC)[C@@H](C)CC)C(C)C)C(C)C` [compound 197] (Ac-IVLSLD[dV]PIKLK([AEEA-AEEA-γGlu-C18 diacid])KILLEQEKQK[Aib]QREQAETN[Aib]QILAQV-NH2), the EC50 at human CRF2a receptor stood at 1.28 nM. Moreover, on CFR1R receptor, the “Emax (% I)” value is 5 % I and the concentration for a half-maximal effect (EC50) was over 250 nM.

As to `CC[C@H](C)[C@H](NC)C(=O)N[C@H](C(=O)N[C@@H](CC(C)C)C(=O)N[C@@H](CO)C(=O)N[C@@H](CC(C)C)C(=O)N[C@@H](CC(=O)O)C(=O)N[C@@H](C(=O)N1CCC[C@H]1C(=O)N[C@H](C(=O)N[C@@H](CCCCN)C(=O)N[C@@H](CC(C)C)C(=O)N[C@@H](CCCCNC(=O)COCCOCCNC(=O)COCCOCCNC(=O)CC[C@H](NC(=O)CCCCCCCCCCCCCCCCC(=O)O)C(=O)O)C(=O)N[C@@H](CCCCN)C(=O)N[C@H](C(=O)N[C@@H](CC(C)C)C(=O)N[C@@H](CC(C)C)C(=O)N[C@@H](CCC(=O)O)C(=O)N[C@@H](CCC(N)=O)C(=O)N[C@@H](CCC(=O)O)C(=O)N[C@@H](CCCCN)C(=O)N[C@@H](CCC(N)=O)C(=O)N[C@@H](CCCCN)C(=O)NC(C)(C)C(=O)N[C@@H](CCC(N)=O)C(=O)N[C@@H](CCCNC(=N)N)C(=O)N[C@@H](CCC(=O)O)C(=O)N[C@@H](CCC(N)=O)C(=O)N[C@@H](C)C(=O)N[C@@H](CCC(=O)O)C(=O)N[C@H](C(=O)N[C@@H](CC(N)=O)C(=O)NC(C)(C)C(=O)N[C@@H](CCC(N)=O)C(=O)N[C@H](C(=O)N[C@@H](CC(C)C)C(=O)N[C@@H](C)C(=O)N[C@@H](CCC(N)=O)C(=O)N[C@H](C(N)=O)C(C)C)[C@@H](C)CC)[C@@H](C)O)[C@@H](C)CC)[C@@H](C)CC)C(C)C)C(C)C` [compound 200] (H-[NMeI]VLSLD[dV]PIKLK([AEEA-AEEA-γGlu-C18 diacid])KILLEQEKQK[Aib]QREQAETN[Aib]QILAQV-NH2), the response at human CRF2a receptor was half-maximal at 0.71 nM (EC50). For the same compound, on CFR1R receptor, the “Emax (% I)” value was 2 % I and the EC50 was over 250 nM.

Take `CCCCC(=O)N[C@H](C(=O)N[C@@H](CC(C)C)C(=O)N[C@@H](CO)C(=O)N[C@@H](CC(C)C)C(=O)N[C@@H](CC(=O)O)C(=O)N[C@@H](C(=O)N1CCC[C@H]1C(=O)N[C@H](C(=O)N[C@@H](CCCCN)C(=O)N[C@@H](CC(C)C)C(=O)N[C@@H](CCCCNC(=O)COCCOCCNC(=O)COCCOCCNC(=O)CC[C@H](NC(=O)CCCCCCCCCCCCCCCCC(=O)O)C(=O)O)C(=O)N[C@@H](CCCCN)C(=O)N[C@H](C(=O)N[C@@H](CC(C)C)C(=O)N[C@@H](CC(C)C)C(=O)N[C@@H](CCC(=O)O)C(=O)N[C@@H](CCC(N)=O)C(=O)N[C@@H](CCC(=O)O)C(=O)N[C@@H](CCCCN)C(=O)N[C@@H](CCC(N)=O)C(=O)N[C@@H](CCCCN)C(=O)N[C@@H](CCCCN)C(=O)N[C@@H](CCC(N)=O)C(=O)N[C@@H](CCCNC(=N)N)C(=O)N[C@@H](CCC(=O)O)C(=O)N[C@@H](CCC(N)=O)C(=O)N[C@@H](C)C(=O)N[C@@H](CCC(=O)O)C(=O)N[C@H](C(=O)N[C@@H](CC(N)=O)C(=O)NC(C)(C)C(=O)N[C@@H](CCC(N)=O)C(=O)N[C@H](C(=O)N[C@@H](CC(C)C)C(=O)N[C@@H](C)C(=O)N[C@@H](CCC(N)=O)C(=O)N[C@H](C(N)=O)C(C)C)[C@@H](C)CC)[C@@H](C)O)[C@@H](C)CC)[C@@H](C)CC)C(C)C)C(C)C` [compound 201] (Pentanoyl-VLSLD[dV]PIKLK([AEEA-AEEA-γGlu-C18 diacid])KILLEQEKQKKQREQAETN[Aib]QILAQV-NH2): it took 1.37 nM to reach a half-maximal effect on human CRF2a receptor (EC50). At CFR1R receptor, the “Emax (% I)” value is 5 % I and the EC50 was over 250 nM.

At human CRF2a receptor, `CCCCC(=O)N[C@H](C(=O)N[C@@H](CC(C)C)C(=O)N[C@@H](CO)C(=O)N[C@@H](CC(C)C)C(=O)N[C@@H](CC(=O)O)C(=O)N[C@@H](C(=O)N1CCC[C@H]1C(=O)N[C@H](C(=O)N[C@@H](CCCCN)C(=O)N[C@@H](CC(C)C)C(=O)N[C@@H](CCCCNC(=O)COCCOCCNC(=O)COCCOCCNC(=O)CC[C@H](NC(=O)CCCCCCCCCCCCCCCCC(=O)O)C(=O)O)C(=O)N[C@@H](CCCCN)C(=O)N[C@H](C(=O)N[C@@H](CC(C)C)C(=O)N[C@@H](CC(C)C)C(=O)N[C@@H](CCC(=O)O)C(=O)N[C@@H](CCC(N)=O)C(=O)N[C@@H](CCC(=O)O)C(=O)N[C@@H](CCCCN)C(=O)N[C@@H](CCC(N)=O)C(=O)N[C@@H](CCCCN)C(=O)NC(C)(C)C(=O)N[C@@H](CCC(N)=O)C(=O)N[C@@H](CCCNC(=N)N)C(=O)N[C@@H](CCC(=O)O)C(=O)N[C@@H](CCC(N)=O)C(=O)N[C@@H](C)C(=O)N[C@@H](CCC(=O)O)C(=O)N[C@H](C(=O)N[C@@H](CC(N)=O)C(=O)NC(C)(C)C(=O)N[C@@H](CCC(N)=O)C(=O)N[C@H](C(=O)N[C@@H](CC(C)C)C(=O)N[C@@H](C)C(=O)N[C@@H](CCC(N)=O)C(=O)N[C@H](C(N)=O)C(C)C)[C@@H](C)CC)[C@@H](C)O)[C@@H](C)CC)[C@@H](C)CC)C(C)C)C(C)C` [compound 202] (Pentanoyl-VLSLD[dV]PIKLK([AEEA-AEEA-γGlu-C18 diacid])KILLEQEKQK[Aib]QREQAETN[Aib]QILAQV-NH2) came in with an EC50 of 1.73 nM. Moreover, on CFR1R receptor, the “Emax (% I)” value amounted to 8 % I and the EC50 was over 250 nM.

As for `CC[C@H](C)[C@H](NC(C)=O)C(=O)N[C@H](C(=O)N[C@@H](CC(C)C)C(=O)N[C@@H](CO)C(=O)N[C@@H](CC(C)C)C(=O)N[C@@H](CC(=O)O)C(=O)N[C@@H](C(=O)N1CCC[C@H]1C(=O)N[C@H](C(=O)N[C@@H](CCCCN)C(=O)N[C@@H](CC(C)C)C(=O)N[C@@H](CCCCNC(=O)COCCOCCNC(=O)COCCOCCNC(=O)CC[C@H](NC(=O)CC[C@H](NC(=O)CCCCCCCCCCCCCCCCC(=O)O)C(=O)O)C(=O)O)C(=O)N[C@@H](CCCCN)C(=O)N[C@H](C(=O)N[C@@H](CC(C)C)C(=O)N[C@@H](CC(C)C)C(=O)N[C@@H](CCC(=O)O)C(=O)N[C@@H](CCC(N)=O)C(=O)N[C@@H](CCC(=O)O)C(=O)N[C@@H](CCCCN)C(=O)N[C@@H](CCC(N)=O)C(=O)N[C@@H](CCCCN)C(=O)N[C@@H](CCCCN)C(=O)N[C@@H](CCC(N)=O)C(=O)N[C@@H](CCCNC(=N)N)C(=O)N[C@@H](CCC(=O)O)C(=O)N[C@@H](CCC(N)=O)C(=O)N[C@@H](C)C(=O)N[C@@H](CCC(=O)O)C(=O)N[C@H](C(=O)N[C@@H](CC(N)=O)C(=O)NC(C)(C)C(=O)N[C@@H](CCC(N)=O)C(=O)N[C@H](C(=O)N[C@@H](CC(C)C)C(=O)N[C@@H](C)C(=O)N[C@@H](CCC(N)=O)C(=O)N[C@H](C(N)=O)C(C)C)[C@@H](C)CC)[C@@H](C)O)[C@@H](C)CC)[C@@H](C)CC)C(C)C)C(C)C` [compound 204] (Ac-IVLSLD[dV]PIKLK([AEEA-AEEA-γGlu-γGlu-C18 diacid])KILLEQEKQKKQREQAETN[Aib]QILAQV-NH2), the figures for the EC50 at human CRF2a receptor and at CFR1R receptor were 1.84 nM and over 250 nM, respectively. In addition, the “Emax (% I)” value at CFR1R receptor is −2 % I.

These data come from US20260001928A1 (CORTERIA PHARMACEUTICALS, priority 2022, published 2026).
